Patent US8834938B2, “Use of arsenic for cancer therapy protection” (Board of Regents of the University of Texas System, priority 2011, dated 2014)
Counter-ions that a name gives are not always drawn. Like-named read-outs stand apart in the source and are kept apart here. Starred links: 1 amine or outer side, 2 acyl side, 3 side chain; linkers in the order of their positions; H or OH if unused. Positions of bridges follow the written chain, without caps; N, C: chain ends. Non-standard residues stand in square brackets, D forms with d. Residues, ends and D or L forms follow the SMILES beside them. Chains are numbered I, II in the order given. Actinocin(9to1) = Cc1c2oc3c(C)ccc(C(=O)[*:1])c3nc-2c(C(=O)[*:2])c(N)c1=O; NMeV = CN[C@H](C(=O)O)C(C)C; Sar = CNCC(=O)O

Columns and labels:
[1] = mice; cited from earlier work
[2] = patients with creatinine clearance >35 mL per minute; cited from earlier work
[3] = in vivo; cited from earlier work
[4] = tested on: small intestine and bone marrow cells; details: mouse, in vivo
[5] = tested on: Human colon carcinoma cells, SW-480; type: in vivo, mice; details: 5FU 30 mg/kg i.v. daily for one week
[6] = tested on: small intestine and bone marrow cells; details: mouse, in vivo; remark: listed apart in the source
[7] = tested on: Human breast carcinoma cells, MDA-MB-231; type: in vivo, mice; details: 5FU 30 mg/kg i.v. daily for one week
[8] = tested on: Human lung carcinoma cells A549; type: in vivo, mice; details: 5FU 30 mg/kg intravenous daily for one week
[9] = in vivo; cited from earlier work; remark: listed apart in the source
[10] = in vivo, cited from earlier work
[11] = oral; cited from earlier work
[12] = cited from earlier work
certain animal tumors = details: in vivo; cited from earlier work
[13] = tested on: chronic myelogenous leukemia; details: previously untreated chronic myelogenous leukemia; cited from earlier work
[14] = in vivo; cited from earlier work; remark: listed apart in the source
[15] = cited from earlier work; remark: listed apart in the source
[16] = oral, 30 mg/m^2 to 100 mg/m^2; cited from earlier work
[17] = 10 mg daily over 2 to 3 hours IV; cited from earlier work
multiple myeloma = details: oral administration; cited from earlier work
[18] = in vivo; cited from earlier work; remark: listed apart in the source

## Bleomycin
[1]
  Concentration in hematopoietic tissue: low concentrations
  Concentration in skin, lungs, kidneys, peritoneum, and lymphatics: high concentrations
[2]
  Serum or plasma terminal elimination half-life: approximately 115 minutes

## COc1cccc2c1C(=O)c1c(O)c3c(c(O)c1C2=O)C[C@@](O)(C(=O)CO)C[C@@H]3O[C@H]1C[C@H](N)[C@H](O)[C@H](C)O1 [Doxorubicin, 5,12-Naphthacenedione, (8s-cis)-10-((3-amino-2,3,6-trideoxy-a-L-lyxo-hexopyranosyl)oxy)-7,8,9,10-tetrahydro-6,8,11-trihydroxy-8-(hydroxyacetyl)-1-methoxy-hydrochloride]
[3]
  Absorption: absorbed poorly
  Elimination half-life: about 30 hr
  Excreted into the urine: a few percent

## O=c1[nH]cc(F)c(=O)[nH]1 [5FU, Fluorouracil]
[4]
  Damage to small intestine and bone marrow cells: severe damages
[5]
  Tumor volume response: marked tumor regression
[6]
  Bone marrow cellularity: Bone marrow cell exhaustion
  Damage to the small intestine: severe damages
[7]
  Tumor volume response: marked tumor regression
[8]
  Tumor volume response: marked tumor regression

## Cc1c2oc3c(C)ccc(C(=O)N[C@@H]4C(=O)N[C@H](C(C)C)C(=O)N5CCC[C@H]5C(=O)N(C)CC(=O)N(C)[C@@H](C(C)C)C(=O)O[C@@H]4C)c3nc-2c(C(=O)N[C@@H]2C(=O)N[C@H](C(C)C)C(=O)N3CCC[C@H]3C(=O)N(C)CC(=O)N(C)[C@@H](C(C)C)C(=O)O[C@@H]2C)c(N)c1=O [Actinomycin D] (I: T[dV]P[Sar][NMeV] / II: T[dV]P[Sar][NMeV]; ester I:1-I:C, II:1-II:C; linker I:N-II:N via Actinocin(9to1))
[9]
  Blood-brain barrier passage: does not pass the blood-brain barrier
  Dose excreted intact into the bile: Half of the dose
  Dose excreted intact into the urine: 10%
  Half-life: about 36 hr

## COc1cccc2c1C(=O)c1c(O)c3c(c(O)c1C2=O)C[C@@](O)([C@H](C)O)C[C@@H]3O[C@H]1C[C@H](N)[C@H](O)[C@H](C)O1 [daunorubicinol]
[10]
  Half-life of active metabolite: about 27 hr

## O=C(O)CCCc1ccc(N(CCCl)CCCl)cc1 [Chlorambucil, 4-(bis(2-chlorethyl)amino)benzenebutanoic acid]
[11]
  Absorption from the gastrointestinal tract: rapidly and completely absorbed

## CC[C@]1(O)C[C@H]2CN(CCc3c([nH]c4ccccc34)[C@@](C(=O)OC)(c3cc4c(cc3OC)N(C=O)[C@H]3[C@@](O)(C(=O)OC)[C@H](OC(C)=O)[C@]5(CC)C=CCN6CC[C@]43[C@@H]65)C2)C1 [Vincristine]
[12]; in vivo
  Absorption after oral administration: Unpredictable absorption
  Plasma protein binding: bind to plasma proteins
[12]; plasma
  Terminal half-life: about 24 hours

## N[C@H](Cc1ccc(N(CCCl)CCCl)cc1)C(=O)O [medphalan]
Certain animal tumors
  Activity against certain animal tumors relative to L-isomer: less active

## CS(=O)(=O)OCCCCOS(C)(=O)=O [busulfan, 1,4-butanediol dimethanesulfonate]
[13]
  Adults obtaining hematologic remission: Approximately 90%

## CC[C@]1(O)C[C@@H]2CN(CCc3c([nH]c4ccccc34)[C@@](C(=O)OC)(c3cc4c(cc3OC)N(C)[C@H]3[C@@](O)(C(=O)OC)[C@H](OC(C)=O)[C@]5(CC)C=CCN6CC[C@]43[C@@H]65)C2)C1 [Vinblastine]
[12]; in vivo
  Absorption after oral administration: Unpredictable absorption
  Dose recovered in the feces after biliary excretion: about 10%
  Plasma protein binding: bind to plasma proteins
[12]; intravenous injection
  Plasma half-life after distribution (first): approximately 1 hours
  Plasma half-life after distribution (second): ~72000 s
[12]; usual clinical doses
  Peak concentration in plasma: approximately 0.4 mM

## O.O=P1(N(CCCl)CCCl)NCCCO1 (stereo not shown) [Cyclophosphamide, 2H-1,3,2-Oxazaphosphorin-2-amine, N,N-bis(2-chloroethyl)tetrahydro-, 2-oxide, monohydrate]
[14]
  Stability in the gastrointestinal tract: stable in the gastrointestinal tract

## CO[C@@]12[C@H](COC(N)=O)C3=C(C(=O)C(C)=C(N)C3=O)N1C[C@@H]1N[C@@H]12 [Mitomycin]
[15]; 30 mg bolus injection
  Time required to reduce the serum concentration by 50%: 17 min
[15]; in vivo
  Dose excreted unchanged in the urine: Approximately 10%

## O=NN(CCCl)C(=O)NC1CCCCC1 [Lomustine, 1-(2-chloro-ethyl)-3-cyclohexyl-1 nitrosourea]
[16]
  Radioactivity excreted as degradation products within 24 hours: about half

## COc1cccc2c1C(=O)c1c(O)c3c(c(O)c1C2=O)C[C@@](O)(C(C)=O)C[C@@H]3O[C@H]1C[C@H](N)[C@H](O)[C@H](C)O1 [Daunorubicin, 5,12-Naphthacenedione, (8S-cis)-8-acetyl-10-(3-amino-2,3,6-trideoxy-a-L-lyxo-hexanopyranosyl)oxy)-7,8,9,10-tetrahydro-6,8,11-trihydroxy-10-methoxy hydrochloride]
[10]; po
  Oral absorption: poor
[10]
  Half-life of elimination: about 19 hr

## arsenic (III) oxide [Arsenic Trioxide]
[17]
  Plasma arsenic mean peak level: 6.85 µmol/L
  t1/2α: 0.89 ± 0.29 h
  t1/2β: 12.13 ± 3.31 h

## N[C@@H](Cc1ccc(N(CCCl)CCCl)cc1)C(=O)O [Melphalan, 4-(bis(2-chloroethyl)amino)-L-phenylalanine]
Multiple myeloma
  Patients showing a favorable response: one third to one half

## N.N.[Cl][Pt][Cl] [Cisplatin]
[18]
  Oral absorption: not absorbed orally
